In general, IC50 refers to the concentration at which inhibition is half-maximal.

Data on 15 compounds can be found in patent publication US8148385B2, “Substituted [1,2,3] triazolo[4,5-d]pyrimidine derivatives as ADP P2Y12 receptor antagonists” (Janssen Pharmaceutica N.V., priority 2006, dated 2012).

In one experiment the target is T1, ADP P2Y12 (Homo sapiens, UniProt Q9H244).
T1 construct: expressed in transfected cells
As to the kind of experiment: FLIPR calcium assay transducing Gi-coupled signaling to the Gq pathway (inhibition of calcium mobilization). It is filed as cell-based. As to conditions: HEK 293 cells co-transfected with P2Y12 and Gqi5, ADP at EC60-70 dose. An excerpt: A FLIPR Calcium Assay Transducing Gi-Coupled Signaling to the Gq Pathway
The ADP P2Y12 subtype is a Gi coupled GPCR, which mediates inhibition of adenylate cyclase leading to decreased cAMP while Gq proteins primarily activate phospholipase C, which stimulates inositol-1,4,5-triphosphate (IP3) formation and a subsequent increase in intracellular Ca^2+ concentration, which can be easily measured by FLIPR. Prior to the development of a method to convert a Gi coupled GPCR signaling to a Gq coupled GPCR signaling, a significant barrier existed for the functional testing and screening of Gi coupled GPCRs. One popular method, GTPγS migration, is slow, produces a small signal and generates radioactive waste. The discovery that a small switch in the amino acid sequence in the Gi protein could convert it to a protein mediating a Gq coupled response has led to the development of robust, high throughput assays for this valuable receptor subtype.
The FLIPR-based HTS assay transducing the Gi signaling to the Gq pathway is described below.
pcDNA3hygroP2Y12 containing a hygromycin resistance gene and pLEC1-Gqi5-HA containing a neomycin resistance gene (licensed from Molecular Devices, Sunnyvale, Calif.) were co-transfected into Human embryonic kidney (HEK) 293 cells with SuperFect (Qiagen, Valencia, Calif.). Cell clones were selected in the presence of 600 μg/ml hygromycin B (Life Technologies, Carlsbad, Calif.) and 1 mg/ml of G418 (Mediatech, Herndon, Va.). Drug resistant colonies were picked and screened by FLIPR and the gene expression was further confirmed by RT-PCR. Positive clones were maintained in growth medium (DMEM supplemented with 10% FBS, 1×p/s) containing 400 μg/ml of G418 and 200 μg/ml of hygromycin.
The day before the assay, cells are seeded in clear, flat-bottom black-wall, tissue culture treated polystyrene 96- or 384-well plates and incubated at 37° C., 5% CO2. 50 μl of complete dye loading solution (FLIPR Calcium Assay Kit, Molecular Devices) was added to each well containing 100 μl of culture media. The cells were incubated for at least 30 min at 37° C., in 5% CO2 before initiating the assay on the FLIPR. The agonist effect of ADP was tested and EC50 was determined prior to compound testing. The EC60-70 dose was used.
The antagonist compounds were prepared at 4× and the agonists were diluted at 5× the concentration desired in the test wells, and then aliquoted into the sample plates. The sample plates and the cell plate were placed in the FLIPR assay chamber. A first addition (50 μl) was made at the start of reading and a second addition (50 μl) was made after 5 min of reading. Raw fluorescence data was exported for each well and tabulated versus time within an ASCII file. Data was then imported into Excel and the peak response over the basal level was determined. The percent inhibition for each compound was calculated by the change in fluorescent density as a % inhibition of the control ADP response to obtain an IC50, as shown in Table 1 (wherein N/A means Not Applicable).
A general note: Calcium assays in cells follow changes in intracellular calcium, usually with a dye or a luminescent sensor.

The target of the next experiment is T2, P2Y12 receptor (Homo sapiens, UniProt Q9H244).
T2 construct: expressed in transfected cells
As to the kind of experiment: Whole cell receptor binding assay for 2-MeS[3H]-ADP. To be noted: whole HEK 293 cells transfected with P2Y12; 2-MeS[3H]-ADP 3 nM; 30 min at 37° C.; read-out: Inhibition of Receptor Binding IC50. The procedure:
A whole cell-binding assay for 2-MeS [^3H]-ADP (Custom synthesized by Amersham BioScience, Piscataway, N.J.) to the P2Y12 receptor was performed.
A P2Y12 cDNA containing hygromycin resistant gene was transfected in HEK 293 cells. A stable cell line was obtained by a cloning selection method. The cells were cultured in DMEM supplemented with 10% FBS and 1× of p/s.
On the day of the assay, the cells were harvested and resuspended in 0.25% BSA-DMEM and adjusted to a cell concentration of 1.6×10^6/ml. […] The reaction was then incubated for 30 min at 37° C. and stopped by adding cold DMEM. […] The plates were dyed in a 37° C. oven for 1-2 hours and 50 μl of MicroScint-20 (PerkinElmer) was added to each well. The radioactivity was measured using a TOPCOUNT beta counter (Packard).

T1 sequence (Q9H244 whole entry): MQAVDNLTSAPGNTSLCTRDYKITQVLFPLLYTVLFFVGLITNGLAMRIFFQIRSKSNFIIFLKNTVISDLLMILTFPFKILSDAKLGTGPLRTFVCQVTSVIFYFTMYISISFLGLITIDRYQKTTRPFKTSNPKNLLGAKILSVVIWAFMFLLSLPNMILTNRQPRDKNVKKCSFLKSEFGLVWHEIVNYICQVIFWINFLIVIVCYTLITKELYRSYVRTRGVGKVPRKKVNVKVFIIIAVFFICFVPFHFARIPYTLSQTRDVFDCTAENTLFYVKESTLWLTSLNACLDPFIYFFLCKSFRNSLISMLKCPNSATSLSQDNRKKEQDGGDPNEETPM
T2 sequence (Q9H244 whole entry): as above

For the compound `CCCSc1nc(N[C@@H]2CCN(Cc3ccccc3)C2)c2nnn([C@@H]3CC[C@H](O)[C@@H](O)[C@H]3O)c2n1` [Cpd 22, (1S,2R,3S,4R)-4-{7-[(3R)-1-benzyl-pyrrolidin-3-ylamino]-5-propylsulfanyl-[1,2,3]triazolo[4,5-d]pyrimidin-3-yl}-cyclohexane-1,2,3-triol], the IC50 on ADP P2Y12 was over 30 µM.
`CCCSc1nc(NCCc2cccs2)c2nnn([C@@H]3C=C[C@H](O)[C@@H](O)[C@H]3O)c2n1` [Cpd 7, (1S,2R,3S,4R)-6-[5-propylsulfanyl-7-(2-thiophen-2-yl-ethylamino)-[1,2,3]triazolo[4,5-d]pyrimidin-3-yl]-cyclohex-4-ene-1,2,3-triol]: the 50% inhibitory concentration (IC50) at P2Y12 receptor is 2.27 µM; on ADP P2Y12, 14.7 µM.
For the compound `CCCSc1nc(NCc2ccco2)c2nnn([C@@H]3CC[C@H](O)[C@@H](O)[C@H]3O)c2n1` [Cpd 18, (1S,2R,3S,4R)-4-{7-[(furan-2-ylmethyl)-amino]-5-propylsulfanyl-[1,2,3]triazolo[4,5-d]pyrimidin-3-yl}-cyclohexane-1,2,3-triol], the 50% inhibitory concentration (IC50) on ADP P2Y12 is over 30 µM.
`CCCSc1nc(NCCc2cccs2)c2nnn([C@@H]3CC[C@H](O)[C@@H](O)[C@H]3O)c2n1` [Cpd 20, (1S,2R,3S,4R)-4-[5-propylsulfanyl-7-(2-thiophen-2-yl-ethylamino)-[1,2,3]triazolo[4,5-d]pyrimidin-3-yl]-cyclohexane-1,2,3-triol]: the IC50 on ADP P2Y12 is over 30 µM.
Turning to `CCCSc1nc(N[C@@H]2C[C@H]2c2ccccc2)c2nnn([C@@H]3C=C[C@H](OCCO)[C@@H](O)[C@H]3O)c2n1` (mixture of isomers) [Cpd 13, (1S,2S,3S,6R)-3-(2-hydroxy-ethoxy)-6-{7-[(1RS,2SR)-2-phenyl-cyclopropylamino]-5-propylsulfanyl-[1,2,3]triazolo[4,5-d]pyrimidin-3-yl}-cyclohex-4-ene-1,2-diol], the IC50 is 8.56 µM on P2Y12 receptor and over 30 µM on ADP P2Y12.
On to `CCCCNc1nc(SCCC)nc2c1nnn2[C@@H]1CC[C@H](O)[C@@H](O)[C@H]1O` [Cpd 19, (1S,2R,3S,4R)-4-(7-butylamino-5-propylsulfanyl-[1,2,3]triazolo[4,5-d]pyrimidin-3-yl)-cyclohexane-1,2,3-triol], for which, at ADP P2Y12, the half-maximal inhibitory concentration (IC50) turned out to be 2.93 µM.
As to `CCCSc1nc(NC[C@@H]2CCCO2)c2nnn([C@@H]3CC[C@H](O)[C@@H](O)[C@H]3O)c2n1` [Cpd 16, (1S,2R,3S,4R)-4-(5-propylsulfanyl-7-{[(2S)-tetrahydro-furan-2-ylmethyl]-amino}-[1,2,3]triazolo[4,5-d]pyrimidin-3-yl)-cyclohexane-1,2,3-triol], the IC50 on ADP P2Y12 is over 30 µM.
With `CCCSc1nc(NCC2CCCN2CC)c2nnn([C@@H]3C=C[C@H](O)[C@@H](O)[C@H]3O)c2n1` (stereo partly drawn) [Cpd 6, (1S,2R,3S,4R)-6-{7-[(1-ethyl-pyrrolidin-2-ylmethyl)-amino]-5-propylsulfanyl-[1,2,3]triazolo[4,5-d]pyrimidin-3-yl}-cyclohex-4-ene-1,2,3-triol], the half-inhibitory concentration (IC50) at ADP P2Y12 was over 30 µM.
Still for that read-out and setting: the value for `CCCSc1nc(N[C@@H]2C[C@H]2c2ccccc2)c2nnn([C@@H]3C=C[C@H](O)[C@H]4OC(C)(C)O[C@H]43)c2n1` (mixture of isomers) [Cpd 10, (3aR,4S,7R,7aS)-2,2-dimethyl-7-{7-[(1RS,2SR)-2-phenyl-cyclopropylamino]-5-propylsulfanyl-[1,2,3]triazolo[4,5-d]pyrimidin-3-yl}-3a,4,7,7a-tetrahydro-benzo[1,3]dioxol-4-ol] was over 30 µM.
For `CCCSc1nc(N[C@@H]2C[C@H]2c2ccccc2)c2nnn(C3[C@@H](O)[C@@H](O)C(OCCO)[C@@H](O)[C@H]3O)c2n1` (mixture of isomers) [Cpd 12, (1R,2R,4S,5S)-3-(2-hydroxy-ethoxy)-6-{7-[(1RS,2SR)-2-phenyl-cyclopropylamino]-5-propylsulfanyl-[1,2,3]triazolo[4,5-d]pyrimidin-3-yl}-cyclohexane-1,2,4,5-tetraol], the figures for the IC50 at P2Y12 receptor and on ADP P2Y12 were 2.2 µM and 6.9 µM, respectively.
In the case of `CCCSc1nc(NCc2ccco2)c2nnn([C@@H]3C=C[C@H](O)[C@@H](O)[C@H]3O)c2n1` [Cpd 4, (1S,2R,3S,4R)-6-{7-[(furan-2-ylmethyl)-amino]-5-propylsulfanyl-[1,2,3]triazolo[4,5-d]pyrimidin-3-yl}-cyclohex-4-ene-1,2,3-triol], on ADP P2Y12, the IC50 is over 30 µM.
As to `CCCSc1nc(NC[C@H]2CCCO2)c2nnn([C@@H]3C=C[C@H](O)[C@@H](O)[C@H]3O)c2n1` [Cpd 2, (1S,2R,3S,6R)-6-(5-propylsulfanyl-7-{[(2R)-tetrahydro-furan-2-ylmethyl]-amino}-[1,2,3]triazolo[4,5-d]pyrimidin-3-yl)-cyclohex-4-ene-1,2,3-triol], the half-inhibitory concentration (IC50) on ADP P2Y12 was over 30 µM.
Consider `CCCSc1nc(NC[C@@H]2CCCO2)c2nnn([C@@H]3C=C[C@H](O)[C@@H](O)[C@H]3O)c2n1` [Cpd 3, (1S,2R,3S,6R)-6-(5-propylsulfanyl-7-{[(2S)-tetrahydro-furan-2-ylmethyl]-amino}-[1,2,3]triazolo[4,5-d]pyrimidin-3-yl)-cyclohex-4-ene-1,2,3-triol], for which the IC50 on P2Y12 receptor was 4.75 µM; at ADP P2Y12 it was over 30 µM.
As for `CCCSc1nc(NCc2cccn2C)c2nnn([C@@H]3C=C[C@H](O)[C@@H](O)[C@H]3O)c2n1` [Cpd 8, (1S,2R,3S,6R)-6-{7-[(1-methyl-1H-pyrrol-2-ylmethyl)-amino]-5-propylsulfanyl-[1,2,3]triazolo[4,5-d]pyrimidin-3-yl}-cyclohex-4-ene-1,2,3-triol], the IC50 at ADP P2Y12 was over 30 µM.
`CCCSc1nc(N[C@@H]2C[C@H]2c2ccccc2)c2nnn([C@@H]3CC[C@H](OCCO)[C@@H](O)[C@H]3O)c2n1` (mixture of isomers) [Cpd 15, (1S,2S,3S,6R)-3-(2-hydroxy-ethoxy)-6-{7-[(1RS,2SR)-2-phenyl-cyclopropylamino]-5-propylsulfanyl-[1,2,3]triazolo[4,5-d]pyrimidin-3-yl}-cyclohexane-1,2-diol]: the IC50 came to 6.6 µM at P2Y12 receptor and 2.63 µM at ADP P2Y12.
